Values of other authors as cited in patent US20050042240A1, “High viscosity antibacterials” (priority 2002, published 2005).

Details: chronic catheter lock context

CC(C)O [isopropyl alcohol]
daily dose above which toxic symptoms can arise: > 500 mg
